The results in this text go back to patent US20250101436A1, “APTAMERS AND SMALL MOLECULE LIGANDS” (MeiraGTx UK II Limited, priority 2021, published 2025).

For this assay, the system named is N5-12G6 riboswitch. Description: Firefly luciferase assay, N5-12G6 riboswitch in HEK293 cells. Particulars: Homo sapiens, HEK293, read-out: Fold induction 2 μM (HEK), 12G6 riboswitch, luciferase, HEK293, 2 μM.
Turning to `Cc1cncc(NCc2cc(Cl)c3nccnc3c2)c1N1CCNCC1` [compound 085, N-((8-chloroquinoxalin-6-yl)methyl)-5-methyl-4-(piperazin-1-yl)pyridin-3-amine], the fold induction at 2 µM amounted to 5.4.

For the compound `Cc1cncc(NCc2cc3nccnc3cc2F)c1N1CCNCC1` [compound 086, N-((7-fluoroquinoxalin-6-yl)methyl)-5-methyl-4-(piperazin-1-yl)pyridin-3-amine], the fold induction at 2 µM worked out at 17.3.

For `Cc1cncc(NCc2cc3nccnc3cc2Cl)c1N1CCNCC1` [compound 087, N-((7-chloroquinoxalin-6-yl)methyl)-5-methyl-4-(piperazin-1-yl)pyridin-3-amine], the fold induction at 2 µM is 20.9.

Take `Fc1cc(CNc2cnccc2N2CCCNCC2)cc2nccnc12` [compound 088, 4-(1,4-diazepan-1-yl)-N-((8-fluoroquinoxalin-6-yl)methyl)pyridin-3-amine]: the fold induction at 2 µM stood at 2.6.

As to `Clc1cc(CNc2cnccc2N2CCCNCC2)cc2nccnc12` [compound 089, N-((8-chloroquinoxalin-6-yl)methyl)-4-(1,4-diazepan-1-yl)pyridin-3-amine], the fold induction at 2 µM amounted to 4.8.

As for `Fc1cc2nccnc2cc1CNc1cnccc1N1CCCNCC1` [compound 090, 4-(1,4-diazepan-1-yl)-N-((7-fluoroquinoxalin-6-yl)methyl)pyridin-3-amine], the fold induction at 2 µM turned out to be 15.

For `Clc1cc2nccnc2cc1CNc1cnccc1N1CCCNCC1` [compound 091, N-((7-chloroquinoxalin-6-yl)methyl)-4-(1,4-diazepan-1-yl)pyridin-3-amine], the fold induction at 2 µM is 28.4.

Regarding `Fc1cncc(NCc2ccc3nccnc3c2)c1N1CCCNCC1` [compound 092, 4-(1,4-diazepan-1-yl)-5-fluoro-N-(quinoxalin-6-ylmethyl)pyridin-3-amine], the fold induction at 2 µM was determined as 34.9.

With `Clc1cncc(NCc2ccc3nccnc3c2)c1N1CCCNCC1` [compound 093, 5-chloro-4-(1,4-diazepan-1-yl)-N-(quinoxalin-6-ylmethyl)pyridin-3-amine], the fold induction at 2 µM was 30.7.

As for `Cc1cncc(NCc2ccc3nccnc3c2)c1N1CCCNCC1` [compound 094, 4-(1,4-diazepan-1-yl)-5-methyl-N-(quinoxalin-6-ylmethyl)pyridin-3-amine], the fold induction at 2 µM is 35.1.

As to `Fc1cncc(NCc2cc(F)c3nccnc3c2)c1N1CCCNCC1` [compound 095, 4-(1,4-diazepan-1-yl)-5-fluoro-N-((8-fluoroquinoxalin-6-yl)methyl)pyridin-3-amine], the fold induction at 2 µM amounted to 8.9.

As to `Fc1cncc(NCc2cc3nccnc3cc2Cl)c1N1CCCNCC1` [compound 096, N-((7-chloroquinoxalin-6-yl)methyl)-4-(1,4-diazepan-1-yl)-5-fluoropyridin-3-amine], the fold induction at 2 µM was 16.2.

For the compound `Clc1cc2nccnc2cc1CNc1cnccc1N1C[C@@H]2C[C@H]1CN2` [compound 097, 4-((1S,4S)-2,5-diazabicyclo[2.2.1]heptan-2-yl)-N-((7-chloroquinoxalin-6-yl)methyl)pyridin-3-amine], the fold induction at 2 µM came to 2.6.

As for `Clc1cc2nccnc2cc1CNc1cnccc1N1C[C@H]2C[C@@H]1CN2` [compound 098, 4-((1R,4R)-2,5-diazabicyclo[2.2.1]heptan-2-yl)-N-((7-chloroquinoxalin-6-yl)methyl)pyridin-3-amine], the fold induction at 2 µM was found to be 4.5.

In the case of `Clc1cc2nccnc2cc1CNc1cnccc1N1CC2CNCC2C1` (stereo not shown) [compound 099, N-((7-chloroquinoxalin-6-yl)methyl)-4-(hexahydropyrrolo[3,4-c]pyrrol-2(1H)-yl)pyridin-3-amine], the fold induction at 2 µM was found to be 8.2.

`C[C@@H]1CNCCN1c1ccncc1NCc1cc2nccnc2cc1F` [compound 100, (R)—N-((7-fluoroquinoxalin-6-yl)methyl)-4-(2-methylpiperazin-1-yl)pyridin-3-amine]: the fold induction at 2 µM is 3.5.

With `C[C@H]1CN(c2ccncc2NCc2cc(Cl)c3nccnc3c2)CCN1` [compound 101, (S)—N-((8-chloroquinoxalin-6-yl)methyl)-4-(3-methylpiperazin-1-yl)pyridin-3-amine], the fold induction at 2 µM came out at 2.2.

On to `C[C@H]1CN(c2ccncc2NCc2cc3nccnc3cc2F)CCN1` [compound 102, (S)—N-((7-fluoroquinoxalin-6-yl)methyl)-4-(3-methylpiperazin-1-yl)pyridin-3-amine], for which the fold induction at 2 µM was 13.6.

Consider `C[C@H]1CN(c2c(F)cncc2NCc2ccc3nccnc3c2)CCN1` [compound 103, (S)-5-fluoro-4-(3-methylpiperazin-1-yl)-N-(quinoxalin-6-ylmethyl)pyridin-3-amine], for which the fold induction at 2 µM stood at 23.3.

Turning to `Cc1cncc(NCc2ccc3nccnc3c2)c1N1CCN[C@@H](C)C1` [compound 104, (S)-5-methyl-4-(3-methylpiperazin-1-yl)-N-(quinoxalin-6-ylmethyl)pyridin-3-amine], the fold induction at 2 µM turned out to be 33.3.

Regarding `Fc1cc(CNc2cnccc2O[C@@H]2CCNC2)cc2nccnc12` [compound 105, (R)—N-((8-fluoroquinoxalin-6-yl)methyl)-4-(pyrrolidin-3-yloxy)pyridin-3-amine], the fold induction at 2 µM was found to be 37.7.

With `Clc1cc(CNc2cnccc2O[C@@H]2CCNC2)cc2nccnc12` [compound 106, (R)—N-((8-chloroquinoxalin-6-yl)methyl)-4-(pyrrolidin-3-yloxy)pyridin-3-amine], the fold induction at 2 µM amounted to 22.2.

Consider `Fc1cc2nccnc2cc1CNc1cnccc1O[C@@H]1CCNC1` [compound 107, (R)—N-((7-fluoroquinoxalin-6-yl)methyl)-4-(pyrrolidin-3-yloxy)pyridin-3-amine], for which the fold induction at 2 µM stood at 48.7.

Turning to `Clc1cc2nccnc2cc1CNc1cnccc1O[C@@H]1CCNC1` [compound 108, (R)—N-((7-chloroquinoxalin-6-yl)methyl)-4-(pyrrolidin-3-yloxy)pyridin-3-amine], the fold induction at 2 µM came to 37.5.

As to `Fc1cncc(NCc2ccc3nccnc3c2)c1O[C@@H]1CCNC1` [compound 109, (R)-5-fluoro-4-(pyrrolidin-3-yloxy)-N-(quinoxalin-6-ylmethyl)pyridin-3-amine], the fold induction at 2 µM came to 54.6.

In the case of `Clc1cncc(NCc2ccc3nccnc3c2)c1O[C@@H]1CCNC1` [compound 110, (R)-5-chloro-4-(pyrrolidin-3-yloxy)-N-(quinoxalin-6-ylmethyl)pyridin-3-amine], the fold induction at 2 µM amounted to 43.1.

For `Cc1cncc(NCc2ccc3nccnc3c2)c1O[C@@H]1CCNC1` [compound 111, (R)-5-methyl-4-(pyrrolidin-3-yloxy)-N-(quinoxalin-6-ylmethyl)pyridin-3-amine], the fold induction at 2 µM worked out at 74.

With `Brc1cncc(NCc2ccc3nccnc3c2)c1OC1CNC1` [compound 112, 4-(azetidin-3-yloxy)-5-bromo-N-(quinoxalin-6-ylmethyl)pyridin-3-amine], the fold induction at 2 µM was determined as 40.9.

As to `Cc1cncc(NCc2ccc3nccnc3c2)c1OC1CNC1` [compound 113, 4-(azetidin-3-yloxy)-5-methyl-N-(quinoxalin-6-ylmethyl)pyridin-3-amine], the fold induction at 2 µM came to 31.9.

Regarding `c1cnc2cc(CNc3cnc4[nH]ccc4c3N3CCNCC3)ccc2n1` [compound 114, 4-(piperazin-1-yl)-N-(quinoxalin-6-ylmethyl)-1H-pyrrolo[2,3-b]pyridin-5-amine], the fold induction at 2 µM worked out at 60.1.

As for `c1ccc2c(N3CCNCC3)c(NCc3ccc4nccnc4c3)cnc2c1` [compound 115, 4-(piperazin-1-yl)-N-(quinoxalin-6-ylmethyl)quinolin-3-amine], the fold induction at 2 µM came out at 79.

Regarding `COc1cc(N2CCNCC2)c(NCc2ccc3nccnc3c2)cn1` [compound 116, 6-methoxy-4-(piperazin-1-yl)-N-(quinoxalin-6-ylmethyl)pyridin-3-amine], the fold induction at 2 µM stood at 50.

For the compound `FC(F)(F)c1cc(N2CCNCC2)c(NCc2ccc3nccnc3c2)cn1` [compound 117, 4-(piperazin-1-yl)-N-(quinoxalin-6-ylmethyl)-6-(trifluoromethyl)pyridin-3-amine], the fold induction at 2 µM came to 30.6.

With `Cc1cc(N2CCNCC2)c(NCc2ccc3nccnc3c2)cn1` [compound 118, 6-methyl-4-(piperazin-1-yl)-N-(quinoxalin-6-ylmethyl)pyridin-3-amine], the fold induction at 2 µM came out at 26.2.

As to `Fc1cc(CNc2cncc(Cl)c2O[C@@H]2CCNC2)cc2nccnc12` [compound 119, (R)-5-chloro-N-((8-fluoroquinoxalin-6-yl)methyl)-4-(pyrrolidin-3-yloxy)pyridin-3-amine], the fold induction at 2 µM was determined as 32.5.

Turning to `Fc1cc2nccnc2cc1CNc1cncc(Cl)c1O[C@@H]1CCNC1` [compound 120, (R)-5-chloro-N-((7-fluoroquinoxalin-6-yl)methyl)-4-(pyrrolidin-3-yloxy)pyridin-3-amine], the fold induction at 2 µM stood at 24.7.

Regarding `Clc1cc2nccnc2cc1CNc1cncc(Cl)c1O[C@@H]1CCNC1` [compound 121, (R)-5-chloro-N-((7-chloroquinoxalin-6-yl)methyl)-4-(pyrrolidin-3-yloxy)pyridin-3-amine], the fold induction at 2 µM was 28.2.

With `Cc1cc(CNc2cnccc2O[C@@H]2CCNC2)cc2nccnc12` [compound 122, (R)—N-((8-methylquinoxalin-6-yl)methyl)-4-(pyrrolidin-3-yloxy)pyridin-3-amine], the fold induction at 2 µM turned out to be 35.8.

Turning to `Cc1cc2nccnc2cc1CNc1cnccc1O[C@@H]1CCNC1` [compound 123, (R)—N-((7-methylquinoxalin-6-yl)methyl)-4-(pyrrolidin-3-yloxy)pyridin-3-amine], the fold induction at 2 µM came out at 83.9.

Take `FC(F)(F)c1cc(CNc2cnccc2O[C@@H]2CCNC2)cc2nccnc12` [compound 124, (R)-4-(pyrrolidin-3-yloxy)-N-((8-(trifluoromethyl)quinoxalin-6-yl)methyl)pyridin-3-amine]: the fold induction at 2 µM was determined as 3.
